Counter-ions that a name gives are not always drawn. Like-named read-outs stand apart in the source and are kept apart here.
Tests used:
[1] = Acute toxicity (LD50) in the male mouse, intraperitoneal and oral routes
Description: The acute toxicity of the compounds according to the invention was studied by the intraperitoneal route in the male mouse. The results obtained were as follows:
The value of lithium salts in the treatment of depressions and in particular of manic-depressive psychosis, is well-known. But the major disadvantage of this therapy resides in the toxicity of the currently known salts (carbonate, citrate, gluconate).

[2] = Spontaneous motility of the mouse, Boissier's photoelectric actimeter; format: in vivo
Description: (§1) 2. The study of the spontaneous motility of the mouse was made by using Boissier's photoelectric actimeter.

[3] = Neuro-muscular activity in the six pharmacological tests (summary); format: in vivo; details: mouse and rat
Method: (§2) 1. The investigation behaviour of the mouse was studied by the "Holed board" test (Boissier and Simon; Arch. Int. Pharmacodyn. 1964, 147, 3-4),
as §1
(§3) 3. The study of the motility of the mice was also made by using Boissier's photoelectric actimeter, after amphetamine-acetyl-taurinate interaction according to the invention: the mice are treated simultaneously with 10 mg/kg (IP) of dextrorotatory amphetamine and with an optimal dose of acetyltaurinate.
(§4) 4. A study of the hypothermia in the mouse was effected by determining the rectal temperature of the mice 30 mins. before the intraperitoneal administration of the product, at the moment of this administration, then 30 mins., 1 hour, 2, 3 and 4 hrs. after the injection of the product.
(§5) 5. The study of the hypothermia after amphetamine-acetyl-taurinate interaction according to the invention was made according to the same method as previously in the mouse, the animals being treated simultaneously with 30 mg/kg (IP) of dextrorotatory amphetamine and with an optimal dose of the product to be tested.
(§6) 6. A test was also made of the appetite- and thirst-depressant activities in the rat.

[4] = Investigation behaviour of the mouse, "Holed board" test; format: in vivo
Description: as §2

[5] = Motility of mice after amphetamine-acetyl-taurinate interaction (photoelectric actimeter); format: in vivo; details: mouse, with 10 mg/kg IP dextrorotatory amphetamine
Method: as §3

[6] = Hypothermia in the mouse (rectal temperature); format: in vivo; details: for hypothermia / reduction in the rectal temperature: intraperitoneal
Method: as §4

[7] = Test of morphinic agitation in mice; format: in vivo, mouse; details: for effect type in the morphinic agitation test: 5-day treatment, 100, 500 and 2500 mg/Kg per os
Description: Furthermore, the neuro-muscular activity of the lithium N-acetyltaurinate has been evaluated in comparison with that of taurine and of the other salts of N-acetyltaurine, using the test of morphinic agitation.

[8] = in vivo
[9] = Hypothermia after amphetamine-acetyl-taurinate interaction in the mouse; format: in vivo
Method: as §5

[10] = Minimum lethal dose by intravenous route in male rabbits; format: in vivo, male rabbit
Method: This reduction of acute toxicity was confirmed by the evaluation of the minimum lethal dose by intraveinous route in male rabbits, comparatively beween lithium citrate and lithium N-acetyltaurinate:
In the same experimental conditions, the minimum lethal dose is 42 mg of lithium with lithium citrate, and 204 mg lithium with lithium N-acetyltaurinate.

[11] = Chronic toxicity in rats over three months, renal histology; format: in vivo, rat
Method: A study of the chronic toxicity in rats was conducted comparatively between lithium N-acetyltaurinate and lithium carbonate:
For three months, rats received doses of 8 mg/Kg and 24 mg/Kg per day of lithium, first in the form or lithium carbonate, and in the form of lithium N-acetyltaurinate.

[12] = Appetite- and thirst-depressant activities in the rat; format: in vivo
Description: as §6

[13] = Human observation: neuromuscular hyperexcitability; format: in vivo
Description: The following observation is given by way of example: a person has been treated for 7 years for a neuromuscular hyperexcitability,with a wide range of neuro-vegetative disorders. They present critical phenomena of lipothymia type, anxious crises with paroxysmal tachycardia. They have had four grand mal epileptic crises.
(§7) A person . . . […] 2 suicide attempts. Predominance of psychomotive inhibition. […] a person . . .

[14] = Human observation: chronic alcoholism with predelirium; format: in vivo
Description: as §7

[15] = Human observation: bipolar manic-depressive psychosis, lithemia and mood; details: one patient
[16] = listed as N-acetyl-taurinate of potassium
[17] = listed as N-acetyl-taurinate of lithium
[18] = listed as N-acetyltaurinate of calcium

## CC(=O)NCCS(=O)(=O)O [Example 2, N-acetyl-taurinate of potassium]
[1]; intraperitoneal route, male mouse, mg of compound, listed as N-acetyltaurinate of potassium
  LD50: 3234 mg/kg
[1]; oral route, male mouse, mg of compound, listed as N-acetyltaurinate of potassium
  LD50: 8170 mg/kg
[2]; dose not stated, listed as N-acetyl-taurinate of potassium
  motive agitation: slight increase
[3]
  neuro-muscular activity in six tests: neuro-muscular activity has been demonstrated
[4]; [16]
  investigation behaviour / exploratory activity: increase in the investigation behaviour in the mouse, not proportional to the dose
[5]; [16]
  amphetaminic excitation: reduction

## CC(=O)NCCS(=O)(=O)O [Example 3, N-acetyl-taurinate of lithium]
[1]; male mice, intraperitoneal and oral routes
  acute toxicity compared with that of lithium carbonate: clearly reduced acute toxicity
[1]; mouse, in vivo, ip, LD50
  LD50: 3880 mg/kg
[1]; mouse, in vivo, ip, LD50 in the male mouse, intraperitoneal route
  LD50: 155 mg/kg
[1]; mouse, in vivo, po, LD50
  LD50: 6630 mg/kg
[1]; mouse, in vivo, po, LD50 in the male mouse
  LD50: 266 mg/kg
[6]; [17]
  hypothermia / reduction in the rectal temperature: significant hypothermia
[2]
  motility in free condition: very clear increase
[2]; dose not stated, listed as N-acetyl-taurinate of lithium
  motive agitation: increase
[7]; 100 mg/Kg per os, between the 75th and the 90th minute
  potentiation of the morphinic agitation: 45%
[7]; listed as lithium acetyltaurinate
  effect type in the morphinic agitation test: biphasic effect
[7]; stronger doses (500 and 2500 mg/Kg) per os
  effect on the agitation caused by morphine sulphate: antagonistic effect
[8]
  stability of the mood: same stability of the mood
[4]; [17]
  investigation behaviour / exploratory activity: very clear increase
[5]; [17]
  amphetaminic excitation: increase
[9]; with 30 mg/kg IP dextrorotatory amphetamine
  hypothermia after simultaneous injection of amphetamine: completely eliminated
[10]
  minimum lethal dose: 204 mg of lithium
[11]; conclusion from acute and chronic toxicity studies
  toxicity with respect to lithium carbonate (acute and chronic renal): less toxic
[11]; rat, in vivo
  tubular renal lesions thirty days after the treatment has stopped: a reversion of the lesions is noted in all the animals
[12]
  appetite- and thirst-depressant actions: very clear appetite- and thirst-depressant actions
  taking of food and drink consumed: very substantial reduction

## CC(=O)NCCS(=O)(=O)O [Example 4, N-acetyl-taurinate of magnesium]
[1]; intraperitoneal route, male mouse, mg of compound, listed as N-acetyltaurinate of magnesium
  LD50: 1709 mg/kg
[1]; oral route, male mouse, mg of compound, listed as N-acetyltaurinate of magnesium
  LD50: 17400 mg/kg
[6]; 2 hours after the injection
  reduction in the maximum rectal temperature: very considerable reduction
[2]; high dose (200 mg/kg)
  motive agitation: very clear reduction
[2]; low dose (100 mg/kg), listed as N-acetyl-taurinate of magnesium, 100 mg/kg
  motive agitation: increase
[7]; listed as Mg
  effect type in the morphinic agitation test: mono-phasic effect, antagonistic to the morphinic agitation even in small doses
[5]; listed as N-acetyl-taurinate of magnesium
  amphetaminic excitation: reduction
[13]; venous perfusion 1 g first ten days with 1.5 g/day per os
  general state of the patient: complete recovery of the general state
[13]; verified with a recession of 13 months
  critical phenomena: disappearance of the critical phenomena
[9]; with amphetamine, 1 hour after the injection
  reduction of rectal temperature after simultaneous injection of amphetamine: completely eliminated

## CC(=O)NCCS(=O)(=O)O [Example 5, N-acetyl-taurinate of calcium]
[1]; intraperitoneal route, male mouse, mg of compound, listed as N-acetyltaurinate of calcium
  LD50: 1604 mg/kg
[1]; oral route, male mouse, mg of compound, listed as N-acetyltaurinate of calcium
  LD50: 13230 mg/kg
[6]; [18]
  hypothermia / reduction in the rectal temperature: significant reduction
[2]; low dose (100 mg/kg), listed as N-acetyltaurinate of calcium, 100 mg/kg
  motive agitation: reduction
[7]; listed as Ca
  effect type in the morphinic agitation test: mono-phasic effect, antagonistic to the morphinic agitation even in small doses
[4]; [18]
  investigation behaviour / exploratory activity: increase
[5]; [18]
  amphetaminic excitation: does not modify
[9]; amphetamine interaction
  hyperthermia: does not modify
[14]; 1.5 g daily oral
  alcoholic weaning: upkept
  intellectual efficiency: improved
  tremblings: considerably reduced
[14]; venous perfusion 1 g per hour for three hours
  effect on attack of mental aberration with convulsions: sedation of the attack with a state of euphoria

## O=C(O)O [Lithium carbonate, reference compound]
[1]; mouse, in vivo, ip
  LD50: 88 mg/kg
[1]; mouse, in vivo, po
  LD50: 162 mg/kg
[15]; 1 g/day
  lithemia: ≤ 0.5 meq/liter
[15]; increased dose
  signs of intolerance: permanent tremblings: nauseas, vomitings, hypotension
[15]
  stability of the mood: a stability of the mood is obtained
[11]; rats, 8 and 24 mg/Kg per day of lithium, three months
  tubular renal lesions (histological study): tubular renal lesions appear in all the treated animals
[11]; rats, dose of 24 mg of lithium per Kg, 30 days after stop
  tubular renal lesions thirty days after the treatment has stopped: the lesions persist

## O=C(O)CC(O)(CC(=O)O)C(=O)O [lithium citrate, reference compound]
[10]
  minimum lethal dose: 42 mg of lithium

## O=C([O-])[C@H](O)[C@@H](O)[C@H](O)[C@H](O)CO.[Li+] [lithium gluconate, reference compound]
[7]; potentiation in small doses
  effect on the morphinic agitation relative to lithium acetyltaurinate at 100 mg/Kg: comparable

## NCCS(=O)(=O)O [taurine]
[7]
  effect type in the morphinic agitation test: no effect
[3]
  neuro-muscular activity in six tests: without any activity
